pIC50: −log10 of the molar value.
Columns and labels:
[1] = molecular target: Lanosterol 14-alpha demethylase (Candida albicans (strain SC5314 / ATCC MYA-2876) (Yeast), UniProt P10613); assay: Inhibition of CYP51 in Candida albicans assessed as inhibition of microbe growth incubated for 48 hrs by CLSI M27-A3 guideline based method
Cytochrome P450 3A4 = Cytochrome P450 3A4 (Homo sapiens, UniProt P08684); assay: Inhibition of CYP3A4 in human hepatocyte microsomes using testosterone substrate by HPLC/MS/MS method; type: ADME
Cytochrome P450 2C9 = Cytochrome P450 2C9 (Homo sapiens, UniProt P11712); assay: Inhibition of CYP2C9 in human hepatocyte microsomes using diclofenac substrate by HPLC/MS/MS method; type: ADME
[2] = molecular target: T1, Cytochrome P450 11B1, mitochondrial (Homo sapiens, UniProt P15538); assay: Inhibition of CYP11B1 in human hepatocyte microsomes using deoxycortisol substrate by HPLC/MS/MS method; type: ADME
T1 sequence (P15538 whole entry): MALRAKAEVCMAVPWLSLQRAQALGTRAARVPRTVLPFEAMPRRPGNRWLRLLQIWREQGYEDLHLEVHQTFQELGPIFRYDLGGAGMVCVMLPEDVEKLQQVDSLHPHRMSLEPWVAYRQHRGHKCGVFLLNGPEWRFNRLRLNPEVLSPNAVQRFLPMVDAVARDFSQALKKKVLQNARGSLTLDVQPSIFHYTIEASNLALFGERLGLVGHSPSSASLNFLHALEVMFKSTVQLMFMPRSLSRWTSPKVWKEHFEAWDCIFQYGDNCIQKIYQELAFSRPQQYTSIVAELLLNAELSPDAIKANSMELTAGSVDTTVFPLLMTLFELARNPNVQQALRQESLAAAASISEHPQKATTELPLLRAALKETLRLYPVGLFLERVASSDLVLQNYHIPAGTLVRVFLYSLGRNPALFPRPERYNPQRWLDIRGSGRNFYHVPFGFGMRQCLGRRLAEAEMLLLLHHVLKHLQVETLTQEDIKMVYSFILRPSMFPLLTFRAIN

[3] = molecular target: T2, Cytochrome P450 11B2, mitochondrial (Homo sapiens, UniProt P19099); assay: Inhibition of CYP11B2 in human hepatocyte microsomes using deoxycorticosteroid substrate by HPLC/MS/MS method; type: ADME
T2 sequence (P19099 whole entry): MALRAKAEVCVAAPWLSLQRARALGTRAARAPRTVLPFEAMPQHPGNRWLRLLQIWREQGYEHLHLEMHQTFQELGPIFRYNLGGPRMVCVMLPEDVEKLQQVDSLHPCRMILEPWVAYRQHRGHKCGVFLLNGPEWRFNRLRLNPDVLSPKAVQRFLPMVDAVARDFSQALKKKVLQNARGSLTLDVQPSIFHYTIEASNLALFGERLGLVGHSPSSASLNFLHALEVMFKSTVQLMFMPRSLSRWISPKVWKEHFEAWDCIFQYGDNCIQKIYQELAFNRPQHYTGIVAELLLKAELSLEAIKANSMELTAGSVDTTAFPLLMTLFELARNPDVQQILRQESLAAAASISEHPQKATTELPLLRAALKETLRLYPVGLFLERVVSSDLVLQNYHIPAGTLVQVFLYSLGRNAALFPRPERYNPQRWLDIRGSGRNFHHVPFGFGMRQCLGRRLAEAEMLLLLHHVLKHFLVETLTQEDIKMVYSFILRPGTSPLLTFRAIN

[4] = molecular target: T3, Steroid 17-alpha-hydroxylase/17,20 lyase (Homo sapiens, UniProt P05093); assay: Inhibition of CYP17 lyase in human hepatocyte microsomes using 17a-hydroxypregnenolone substrate by HPLC/MS/MS method; type: ADME
T3 sequence (P05093 whole entry): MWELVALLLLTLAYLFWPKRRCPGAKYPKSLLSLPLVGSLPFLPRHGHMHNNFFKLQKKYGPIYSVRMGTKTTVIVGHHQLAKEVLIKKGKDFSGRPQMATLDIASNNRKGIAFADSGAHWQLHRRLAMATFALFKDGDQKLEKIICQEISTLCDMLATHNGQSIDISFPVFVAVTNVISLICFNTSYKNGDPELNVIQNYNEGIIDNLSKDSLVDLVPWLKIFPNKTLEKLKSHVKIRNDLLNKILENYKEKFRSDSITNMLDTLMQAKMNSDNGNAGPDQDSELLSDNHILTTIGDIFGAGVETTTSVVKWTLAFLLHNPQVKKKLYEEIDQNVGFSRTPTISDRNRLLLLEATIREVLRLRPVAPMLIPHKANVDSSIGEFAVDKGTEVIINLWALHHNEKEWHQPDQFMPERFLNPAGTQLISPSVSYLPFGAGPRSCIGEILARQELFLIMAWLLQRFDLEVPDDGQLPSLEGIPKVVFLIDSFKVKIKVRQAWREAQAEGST

[5] = molecular target: T3, Steroid 17-alpha-hydroxylase/17,20 lyase; assay: Inhibition of CYP17 hydroxylase in human hepatocyte microsomes using pregnenolone substrate by HPLC/MS/MS method; type: ADME
[6] = Cmax in Swiss albino mouse at 5 mg/kg, po measured during 0.5 to 48 hrs post dose by HPLC/MS/MS method; type: ADME, organism-based; parameters: dose 5 mg/kg, route oral; conditions: in vivo
[7] = AUClast in Swiss albino mouse at 5 mg/kg, po measured during 0.5 to 48 hrs post dose by HPLC/MS/MS method; type: ADME, organism-based; parameters: dose 5 mg/kg, route oral, time 0 - last; conditions: in vivo
[8] = Half life in Swiss albino mouse plasma at 5 mg/kg, po measured during 0.5 to 48 hrs post dose by HPLC/MS/MS method; type: ADME, organism-based
Kidney [9] = assay: Drug level in Swiss albino mouse kidney at 5 mg/kg, po after 48 hrs assessed as relative Cmax level relative to plasma drug level by HPLC/MS/MS method; type: ADME, organism-based; conditions: other tissue
Kidney [10] = assay: Drug level in Swiss albino mouse kidney at 5 mg/kg, po after 48 hrs assessed as relative AUC (48 hrs) level relative to plasma drug level by HPLC/MS/MS method; type: ADME, organism-based; conditions: other tissue
Lung = assay: Drug level in Swiss albino mouse lung at 5 mg/kg, po after 48 hrs assessed as relative Cmax level relative to plasma drug level by HPLC/MS/MS method; type: ADME, organism-based; conditions: in vivo
Brain [11] = assay: Drug level in Swiss albino mouse brain at 5 mg/kg, po after 48 hrs assessed as relative Cmax level relative to plasma drug level by HPLC/MS/MS method; type: ADME, organism-based
Brain [12] = assay: Drug level in Swiss albino mouse brain at 5 mg/kg, po after 48 hrs assessed as relative AUC (48 hrs) level relative to plasma drug level by HPLC/MS/MS method; type: ADME, organism-based
[13] = Half life in Swiss albino mouse kidney at 5 mg/kg, po measured during 0.5 to 48 hrs post dose by HPLC/MS/MS method; type: ADME, organism-based
[14] = Half life in Swiss albino mouse lung at 5 mg/kg, po measured during 0.5 to 48 hrs post dose by HPLC/MS/MS method; type: ADME, organism-based
[15] = Half life in Swiss albino mouse brain at 5 mg/kg, po measured during 0.5 to 48 hrs post dose by HPLC/MS/MS method; type: ADME, organism-based
[16] = molecular target: Cytochrome P450 2C19, Homo sapiens (UniProt P33261); assay: Inhibition of CYP2C19 in human hepatocyte microsomes using omeprazole substrate by HPLC/MS/MS method
Cytochrome P450 2C19, Homo sapiens, sequence (P33261 whole entry, looked up): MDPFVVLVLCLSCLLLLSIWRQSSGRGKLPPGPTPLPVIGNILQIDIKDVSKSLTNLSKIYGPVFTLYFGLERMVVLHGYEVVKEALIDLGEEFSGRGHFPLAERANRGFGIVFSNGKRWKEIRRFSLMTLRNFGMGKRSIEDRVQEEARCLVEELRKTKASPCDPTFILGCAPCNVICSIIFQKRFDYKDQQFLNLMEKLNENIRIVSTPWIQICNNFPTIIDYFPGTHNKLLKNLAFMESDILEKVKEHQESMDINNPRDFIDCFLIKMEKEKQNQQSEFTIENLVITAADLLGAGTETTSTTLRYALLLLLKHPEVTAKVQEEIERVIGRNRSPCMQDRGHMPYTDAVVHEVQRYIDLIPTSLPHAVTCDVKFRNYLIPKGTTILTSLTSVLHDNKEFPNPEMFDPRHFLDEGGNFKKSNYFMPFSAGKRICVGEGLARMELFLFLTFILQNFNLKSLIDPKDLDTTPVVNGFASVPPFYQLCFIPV

Cytochrome P450 2C9, sequence (P11712 whole entry): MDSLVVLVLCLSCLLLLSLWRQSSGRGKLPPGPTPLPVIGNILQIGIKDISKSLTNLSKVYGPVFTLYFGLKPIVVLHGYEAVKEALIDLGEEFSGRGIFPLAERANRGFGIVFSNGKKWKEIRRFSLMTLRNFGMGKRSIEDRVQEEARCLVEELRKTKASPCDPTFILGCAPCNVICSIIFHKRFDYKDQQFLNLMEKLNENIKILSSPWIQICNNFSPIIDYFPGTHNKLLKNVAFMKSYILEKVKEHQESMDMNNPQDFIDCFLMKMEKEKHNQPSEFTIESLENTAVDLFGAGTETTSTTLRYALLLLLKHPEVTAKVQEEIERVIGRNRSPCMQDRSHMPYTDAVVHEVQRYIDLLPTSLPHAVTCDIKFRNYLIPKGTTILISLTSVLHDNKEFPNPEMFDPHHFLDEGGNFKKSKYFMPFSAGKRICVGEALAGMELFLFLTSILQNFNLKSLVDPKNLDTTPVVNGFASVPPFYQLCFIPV
Lanosterol 14-alpha demethylase, sequence (P10613 whole entry): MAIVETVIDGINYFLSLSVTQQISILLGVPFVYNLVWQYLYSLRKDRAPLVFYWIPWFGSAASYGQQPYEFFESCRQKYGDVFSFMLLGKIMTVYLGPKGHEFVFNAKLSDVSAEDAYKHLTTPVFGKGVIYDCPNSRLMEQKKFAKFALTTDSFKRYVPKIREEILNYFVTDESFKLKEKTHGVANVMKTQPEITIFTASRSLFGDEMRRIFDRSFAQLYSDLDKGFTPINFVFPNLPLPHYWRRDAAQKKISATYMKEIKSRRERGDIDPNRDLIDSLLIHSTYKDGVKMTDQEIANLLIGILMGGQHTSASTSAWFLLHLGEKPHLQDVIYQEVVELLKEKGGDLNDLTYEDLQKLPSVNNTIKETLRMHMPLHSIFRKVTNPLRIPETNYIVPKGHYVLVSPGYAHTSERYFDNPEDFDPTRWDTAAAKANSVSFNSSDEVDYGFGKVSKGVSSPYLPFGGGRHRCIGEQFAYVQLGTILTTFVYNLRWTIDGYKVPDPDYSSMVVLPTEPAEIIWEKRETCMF
Cytochrome P450 3A4, sequence (P08684 whole entry): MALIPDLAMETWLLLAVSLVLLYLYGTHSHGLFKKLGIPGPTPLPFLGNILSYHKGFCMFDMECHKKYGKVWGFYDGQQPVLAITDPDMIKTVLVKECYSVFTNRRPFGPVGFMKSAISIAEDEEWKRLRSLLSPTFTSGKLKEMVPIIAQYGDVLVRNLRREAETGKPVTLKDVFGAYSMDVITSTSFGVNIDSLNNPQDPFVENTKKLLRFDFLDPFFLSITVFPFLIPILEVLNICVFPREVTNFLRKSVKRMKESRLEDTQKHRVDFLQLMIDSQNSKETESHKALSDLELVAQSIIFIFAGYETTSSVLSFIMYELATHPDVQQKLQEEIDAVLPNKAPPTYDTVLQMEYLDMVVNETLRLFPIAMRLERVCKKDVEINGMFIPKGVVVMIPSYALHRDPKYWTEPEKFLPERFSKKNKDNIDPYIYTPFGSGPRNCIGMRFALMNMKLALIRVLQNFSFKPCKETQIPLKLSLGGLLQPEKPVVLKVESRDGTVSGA

MIC50 [1]: 7.8 ng/mL
pIC50 (Cytochrome P450 3A4): < 3.70
pIC50 (Cytochrome P450 2C9): < 3.70
pIC50 [2]: < 4.00
pIC50 [3]: < 4.00
pIC50 [4]: 4.42
pIC50 [5]: < 4.00
Cmax [6]: 2500 ng/mL
AUC(0-t) [7]: 67000 ng·h/mL
half-life [8]: 24 h
Drug uptake (Kidney [9]): 270%
Drug uptake (Kidney [10]): 268%
Drug uptake (Lung): 116%
Drug uptake (Brain [11]): 58%
Drug uptake (Brain [12]): 65%
half-life [13]: 16 to 19 h
half-life [14]: 16 to 19 h
half-life [15]: 16 to 19 h
pIC50 [16]: 3.86
Structure (SMILES): N#Cc1ccc(COc2ccc(C#Cc3ccc(C(F)(F)C(O)(Cn4cnnn4)c4ccc(F)cc4F)nc3)cc2)cc1 (single isomer, unassigned; (+))

From ChEMBL document CHEMBL4052712, “Design and optimization of highly-selective, broad spectrum fungal CYP51 inhibitors” (Bioorg Med Chem Lett, 2017)
